The structures appear in SMILES notation.

The nature of this series: method code SF, from DOI: 10.1021/jm101405t, PMID: 21319751. The settings on record: pH 7.4.
`OCCc1ccc(OCc2ccccc2Oc2ccccc2)cc1` yielded a logD of 3.32.

`OCCc1ccc(-c2cccc(OCCc3ccccc3)c2)cc1`: the logD stood at 3.63.

`OCCc1ccc(OCc2cccc(-c3nccs3)c2)cc1` came in with a log distribution coefficient (logD) of 2.11.

As to `OCCc1ccc(OCc2cccc(-c3ccccn3)c2)cc1`, the log distribution coefficient (logD) worked out at 1.94. This logD and that of the molecule before are within 0.2 log units of each other.

In the case of `OCCc1ccc(OCc2ccccc2-c2ccccc2)cc1`, the logD is 3.25.

Molecule `OCCc1ccc(OCc2ccc(-c3ccccc3)cc2)cc1` had a logD of 3.41.

Take `OCCc1ccc(OCc2cccc(-c3cccs3)c2)cc1`: the logD was determined as 3.22. This logD and that of the molecule before are within 0.2 log units of each other.

`OCCc1ccc(OCc2cccc(-c3ccccc3)c2)cc1` yielded a log distribution coefficient (logD) of 3.37.

On to `OCCc1ccc(OCc2ccccc2)cc1`, for which the logD came out at 1.96.

The term logD denotes the decadic logarithm of the distribution of all forms, ionised or not, between an organic phase and buffer at a given pH.
